In brackets after ≈: the same amount, converted by molar mass.
Details: for aqueous solubility: pH 6.8

| Structure (SMILES) | MDR1-MDCK efflux ratio | intrinsic clearance, human liver microsomes [mL/min/kg] | intrinsic clearance, rat liver microsomes [mL/min/kg] | aqueous solubility [µg/mL] |
| --- | --- | --- | --- | --- |
| CN(Cc1ccc(Cl)cc1)C(=O)c1ccc(-n2ccnc2)nc1 | 1.08 | ≤ 4.74 | 46.4 | 65.1 (≈ 199 µM) |
| O=C(Nc1ccc2c(c1)OCCCO2)c1cnn(Cc2ccccc2)c1 | 0.64 | 6.05 | 492 | 16.5 (≈ 47.2 µM) |
| O=C(Nc1ccncc1)[C@H]1CCCN(S(=O)(=O)c2ccc(Cl)cc2)C1 | 20 | 22.2 | 721 | – |
| c1ccc(CCc2n[nH]c(-c3cccc4cnccc34)n2)cc1 | 1.09 | 107 | 443 | 41.7 (≈ 139 µM) |
| Cc1c(C(=O)NCC2CCSCC2)nnn1-c1cccc2cnccc12 | – | 177 | 1770 | – |
| CCN(CC)C(=O)Oc1cccc2cccnc12 | – | 20.6 | 189 | – |
| CC(C)(C)c1ccc(C(=O)Nc2ccc(C(=O)Nc3ccccc3)cc2)cc1 | 0.455 | – | – | 0.4 (≈ 1.07 µM) |
| COc1ccc(CC(=O)N2CCc3[nH]c4ccc(Cl)cc4c3C2)cc1OC | 6.37 | 120 | 675 | 6.7 (≈ 17.4 µM) |
| Cn1c(CNc2ccc(C(=N)N)cc2)nc2cc(C(=O)N(CCC(=O)O)c3ccccn3)ccc21 | 0.503 | ≤ 4.74 | ≤ 10.7 | 4.91 (≈ 10.4 µM) |
| O=C(Cc1cccs1)NCc1ccccc1F | 0.641 | 20.9 | 133 | 34.8 (≈ 140 µM) |
| CNCc1cc(N(C)C)nc(C2CCCN2C(=O)C2CN(Cc3ccc(Cl)cc3)C2)n1 (stereo not drawn) | 46.8 | 8.66 | 28.4 | – |
| O=C(c1cccc(Cl)c1)N1CCN(C(=O)c2ccc3ccccc3c2O)CC1 | 0.678 | 28.8 | 166 | 2.4 (≈ 6.08 µM) |
| CC(=O)N1CCN([C@H]2CCN(C(=O)c3cc4cc(Cl)ccc4o3)CC[C@@H]2O)CC1 | 37.8 | 8.04 | 96.9 | – |
| Cc1cccnc1NC(=O)CCc1ccc(F)cc1 | – | 6.88 | 764 | 38.1 (≈ 147 µM) |
| Cn1c2cc(S(C)=O)sc2c2cnn(Cc3cccc(N)c3)c(=O)c21 (stereo not drawn) | – | 4.92 | 49.6 | – |
| Cc1cc(C(=O)Nc2nnc3n2CCCC3)n(C)n1 | 1.44 | ≤ 4.74 | 11.4 | – |
| Cc1nc(-c2ccccc2)ccc1C(=O)NC1CCCC1 | – | ≤ 4.74 | 319 | 41 (≈ 146 µM) |
| CCc1c(C(=O)N2CC[C@@](O)(CC(C)C)[C@@H](Oc3ccc(F)cc3)C2)[nH]c2ccc(C)cc12 | 4.15 | 104 | 1290 | – |
| COc1cc(Nc2cc(-c3cccc(C#N)c3)ccn2)ccc1N1CCN(C)CC1 | 3.85 | 5.88 | 198 | 45.8 (≈ 115 µM) |
| Cc1cc(=O)n(C)c2cc(N3C(=O)CC[C@H](NS(=O)(=O)CC(C)C)[C@H]3c3ccc(Cl)cc3)ccc12 | 1.48 | 370 | 944 | 44.4 (≈ 86 µM) |

| Structure (SMILES) | MDR1-MDCK efflux ratio | intrinsic clearance, human liver microsomes [mL/min/kg] | intrinsic clearance, rat liver microsomes [mL/min/kg] | aqueous solubility [µg/mL] |
| --- | --- | --- | --- | --- |
| Cc1nccc(NC(=O)c2ccncc2Cl)c1Cl | 0.729 | 21.2 | 78.1 | – |
| O=C(Nc1ccc(N2CCOCC2)nc1)N1CCc2sccc2C1 | 1.91 | 8.76 | 109 | 25.8 (≈ 74.8 µM) |
| CC(=O)c1c(C)c2cnc(Nc3ccc(N4CCNCC4)cn3)nc2n(C2CCCC2)c1=O | 63.1 | 12.8 | 34.7 | 46.2 (≈ 103 µM) |
| Cc1nc(C(=O)NC2CC2)ccc1C#N | – | – | – | 36.2 (≈ 180 µM) |
| N#Cc1ccc(C(=O)N2CCCO2)nc1 | 0.487 | 37.6 | 1020 | – |
| Cc1cc(NC(=O)c2ccc(NC3CC3)nc2)[nH]n1 | – | 6.42 | 15.5 | – |
| Cc1ccc(-c2ccc(=O)n(Cc3ccncc3)n2)cc1 | 0.617 | 41.7 | 2400 | 42.6 (≈ 154 µM) |
| CN(C)c1ncncc1NC(=O)c1ccc(C(F)(F)F)nc1 | – | ≤ 4.74 | ≤ 10.7 | – |
| Cc1ccccc1S(=O)(=O)N[C@@H]1CC[C@@H](O)[C@@H]1O | – | ≤ 4.74 | 17.7 | – |
| Cc1ncc(-c2ccccn2)c(CCNC(=O)C2CCCC2)n1 | 7.73 | 7.32 | 90.7 | – |
| COc1ccc(Cl)cc1NC(=O)CN1CCCN(c2ccc(C(F)(F)F)cn2)CC1 | 1.75 | 453 | 1060 | – |
| O=C1NC2(CCC2)C(=O)N1Cc1ccon1 | – | ≤ 4.74 | ≤ 10.7 | – |
| CCc1nc(COc2ccccc2Br)no1 | – | – | – | 21.9 (≈ 77.5 µM) |
| Cc1nc(-c2ccccc2)c(C(=O)Nc2cc(Cl)cc(Cl)c2)s1 | – | 25.7 | 230 | – |
| CSc1ccccc1NC(=O)CN1CCCC(c2nc3ccccc3o2)C1 (stereo not drawn) | – | 1120 | 4670 | 8.5 (≈ 22.3 µM) |
| Cc1[nH]c2ccc(Cl)cc2c1CC(=O)N1CCC(Cc2ncncc2C(N)=O)CC1 | 18.6 | 357 | 1170 | 46.5 (≈ 109 µM) |
| CC(C)(C)c1nc(O)c2nnn(C3CCNCC3)c2n1 | – | ≤ 4.74 | ≤ 10.7 | – |
| CC(C)c1nc2c(n1C)CCN(c1ncnc3ccsc13)C2 | 3.28 | 21.7 | 567 | 54.4 (≈ 173 µM) |
| CS(=O)(=O)c1cccc(CNc2nc(Nc3ccc4c(c3)CCC(=O)N4)ncc2C(F)(F)F)c1 | – | 14.2 | 133 | 2.96 (≈ 6.03 µM) |
| O=C(c1n[nH]c2c1COCC2)N1CCC2(C=Cc3ccccc32)CC1 | 1.5 | 4.85 | 870 | – |

| Structure (SMILES) | MDR1-MDCK efflux ratio | intrinsic clearance, human liver microsomes [mL/min/kg] | intrinsic clearance, rat liver microsomes [mL/min/kg] | aqueous solubility [µg/mL] |
| --- | --- | --- | --- | --- |
| NC(=O)Cn1c2ccccc2c2nc3ccccc3nc21 | – | – | – | 0.15 (≈ 0.543 µM) |
| COCc1ncc(CN2CCC(Oc3ccccc3C)CC2)cn1 | – | 23.1 | 180 | – |
| Cc1cc2ncn(CC(=O)NC(C)(C)C)c2cc1C | 5.53 | ≤ 4.74 | 70.1 | 39.1 (≈ 151 µM) |
| CC(=O)N1CCCC(C(=O)N2CCc3c(cccc3C(C)C)C2)C1 (stereo not drawn) | – | 46 | 506 | 55 (≈ 167 µM) |
| Cc1cc(C(=O)Nc2ncccc2C)c2ccccc2n1 | – | 13.7 | 58.3 | 44 (≈ 159 µM) |
| Cc1sc(NC(=O)CN2CCOC(C3CCCO3)C2)c(C)c1C (stereo not drawn) | 1 | 12.8 | 185 | 60.9 (≈ 180 µM) |
| COc1ccccc1N1CCN(c2nc(-c3ccc(F)cc3)cc(=O)[nH]2)CC1 | 2.15 | – | – | 0.2 (≈ 0.526 µM) |
| CC1CCN(CCNC(=O)c2ccncc2)CC1 | 2.3 | ≤ 4.74 | 490 | 34.2 (≈ 138 µM) |
| N#Cc1cccc(-c2ccc3[nH]ccc3c2)n1 | 0.528 | 299 | 657 | 3.65 (≈ 16.6 µM) |
| O=C(c1cccs1)N1CCCC(C(=O)N2Cc3ccccc3C(c3ccccc3)C2)C1 (stereo not drawn) | – | 767 | 4910 | 24.7 (≈ 57.4 µM) |
| CN(C)c1cccc(Cn2ccnc2-c2ccc(O)cc2)c1 | 3.77 | 77.7 | 1040 | 27.1 (≈ 92.5 µM) |
| O=C(NCCN1CCC(O)(c2cccc(F)c2)CC1)c1cccc(F)c1 | 5.65 | 9.11 | 245 | 53.5 (≈ 148 µM) |
| COC1(c2nc(Cc3ccccc3)no2)CCN(Cc2cnc(C)o2)CC1 | 1.12 | 18 | 285 | – |
| O=C(O)c1ccccc1COc1cccc2cccnc12 | 1.76 | ≤ 4.74 | 12.4 | – |
| c1ccc(Cc2cccc3cc4c(nc23)OCCNC4)cc1 | – | 24.5 | 1120 | 47.8 (≈ 165 µM) |
| CC(C)(C)C(=O)N1CCC(CN2C(=O)C(=O)N(C3CCCC3)C2=O)CC1 | 2.03 | 22.1 | 288 | 66.8 (≈ 184 µM) |
| Cc1ccc(C(=O)Nc2ccccc2C(C)(C)C)cn1 | 0.696 | ≤ 4.74 | 30.4 | 32 (≈ 119 µM) |
| Nc1nc2ccccc2nc1N1CCCC1 | 0.533 | 232 | 337 | 29.9 (≈ 139 µM) |
| CSCC(=O)N1CCN(C(=O)CSC)C2(CCCCC2)C1 | 5.33 | 57.8 | 868 | 50.5 (≈ 153 µM) |

Reference: the Biogen ADME set (Fang et al. 2023)
